Assay results from patent publication US8946327B2, “Method for producing synthetic amylospheroid” (Tao Health Life Pharma., Ltd., priority 2011, dated 2015).

Test system: primary cultured neurons derived from hippocampus of mature rat
Assay: Cytotoxicity test (Cell Death Detection ELISA, apoptosis)
Assay type: cell-based
Protocol: The formation of ASPD was confirmed by the following cytotoxicity test. A certain amount of ASPD was administered overnight to primary cultured neurons (more than 19 days after starting culture) derived from hippocampus of mature rat, and the neurotoxicity was measured in accordance with protocols using Cell Death Detection ELISA manufactured by Roche Diagnostics. This is an ELISA kit for quantitative detection of histone-complexed DNA fragmentation in the cells caused by apoptosis.

## CCCCC(CC)COC(=O)c1ccccc1C(=O)OCC(CC)CCCC (centres unmarked) [DEHP, bis(2-ethylhexyl)phthalate]
Solution containing the same concentration of DEHP and not containing synthetic ASPD, data not shown
  cytotoxicity (neurotoxicity): No cytotoxicity

## Example 1: synthetic ASPD (amylospheroid) formed from Aβ42 by agitation using 65 mM DEHP/DMSO solution
Solution containing synthetic ASPD before purification, 1, 2 and 4 μM in terms of Aβ42, administered overnight, compared with Comparative Example 1 (DEHP−), FIG. 2
  cytotoxicity (neurotoxicity): significant cytotoxicity in a concentration-dependent manner
